Measured values taken from patent EP4722212A1, “NOVEL COMPOUND FOR INHIBITING PROTEIN KINASES AND PHARMACEUTICAL COMPOSITION COMPRISING SAME” (Magicbullettherapeutics Co., Ltd., priority 2023, dated 2024).

Experiments:
HT-29 = assay: Cell line inhibition analysis (CCK-8, 72 h); assay type: cell-based; conditions: Homo sapiens, read-out: Cell growth inhibition GI50 HT-29
Method: (§1) C4-2B and 22Rv1 cells were purchased from ATCC and cultured according to the manufacturer's instructions. The cells were seeded in 96-well plates at 7×10^3cells/100 µl/well and allowed to attach for one day. After removing the culture medium, 90 µl/well of fresh culture medium was added, followed by addition of 10 µl/well of culture medium containing compounds at nine concentrations (0.076-500 µM) serially diluted 3-fold and DMSO control to achieve final concentrations of 0-50 µM, and then cultured for 72 hours in a 37 °C CO2 incubator. Cell proliferation after 72 hours was assessed by adding 10 µl/well of CCK-8 solution, orbital shaking for 30 seconds, then incubating at 37 °C CO2 incubator for 2 hours and measuring absorbance at 450 nm using a microplate reader. The measured absorbance values were corrected by subtracting the absorbance of wells containing only culture medium and CCK-8 solution, and GI50 values were calculated using GraphPad Prism 8 software.
(§2) Meanwhile, in a separate 96-well plate, cells were seeded at 7 × 10^3 cells/100 µl/well, allowed to attach for one day, CCK-8 solution was added, and absorbance was measured to establish the 'Growth (%) = 0' value.
(§3) Furthermore, experiments were conducted on A172, A549, HCI-H460, AsPC-1, MIA-Paca-2, DLD-1, HCT-116, HT-29, SW480, SW620, MDA-MB-231, and SKOV3 cell lines using the same method, with results shown in Tables 9 and 10 below [* <1 µM: A, <5 µM: B, <10 µM: C, >10 µM: D].

MDA-MB-231 = assay: Cell line inhibition analysis (CCK-8, 72 h); assay type: cell-based; conditions: Homo sapiens, read-out: Cell growth inhibition GI50 MDA-MB-231
Method: as §1, §2, §3

MIA-Paca-2 = assay: Cell line inhibition analysis (CCK-8, 72 h); assay type: cell-based; conditions: Homo sapiens, read-out: Cell growth inhibition GI50 MIA-Paca-2
Method: as §1, §2, §3

SKOV3 = assay: Cell line inhibition analysis (CCK-8, 72 h); assay type: cell-based; conditions: Homo sapiens, SK-OV-3; read-out: Cell growth inhibition GI50 SKOV3
Method: as §1, §2, §3

A549 = assay: Cell line inhibition analysis (CCK-8, 72 h); assay type: cell-based; conditions: Homo sapiens, read-out: Cell growth inhibition GI50 A549
Method: as §1, §2, §3

A172 = assay: Cell line inhibition analysis (CCK-8, 72 h); assay type: cell-based; conditions: Homo sapiens, A 172; read-out: Cell growth inhibition GI50 A172
Method: as §1, §2, §3

SW480 = assay: Cell line inhibition analysis (CCK-8, 72 h); assay type: cell-based; conditions: Homo sapiens, read-out: Cell growth inhibition GI50 SW480
Method: as §1, §2, §3

HCI-H460 = assay: Cell line inhibition analysis (CCK-8, 72 h); assay type: cell-based; conditions: read-out: Cell growth inhibition GI50 HCI-H460
Method: as §1, §2, §3

HCT-116 = assay: Cell line inhibition analysis (CCK-8, 72 h); assay type: cell-based; conditions: Homo sapiens, read-out: Cell growth inhibition GI50 HCT-116
Method: as §1, §2, §3

DLD-1 = assay: Cell line inhibition analysis (CCK-8, 72 h); assay type: cell-based; conditions: Homo sapiens, read-out: Cell growth inhibition GI50 DLD-1
Method: as §1, §2, §3

AsPC-1 = assay: Cell line inhibition analysis (CCK-8, 72 h); assay type: cell-based; conditions: Homo sapiens, ASPC1; read-out: Cell growth inhibition GI50 AsPC-1
Method: as §1, §2, §3

SW620 = assay: Cell line inhibition analysis (CCK-8, 72 h); assay type: cell-based; conditions: Homo sapiens, SW-620; read-out: Cell growth inhibition GI50 SW620
Method: as §1, §2, §3

MINK/MINK1 = MINK/MINK1 (Homo sapiens, UniProt Q8N4C8); assay: Kinase panel; assay type: biochemical; conditions: MINK/MINK1, 1 µM; read-out: residual enzyme activity
Method: (§4) To measure the inhibitory activity of protein kinases against the compounds of the present invention, a biochemical assay was performed using a full kinase panel. The inhibitory efficacy of kinases was measured when Example compounds 8 and 51 were treated at a single concentration of 1 µM, and residual enzyme activity values were calculated. Kinases were identified when the calculated residual enzyme activity values were 40% or less, i.e., inhibited by 60% or more.

LYN B = LYN B (Homo sapiens, UniProt P07948); assay: Kinase panel; assay type: biochemical; conditions: read-out: residual enzyme activity
Method: as §4

MKK6 = MKK6 (Homo sapiens, UniProt P52564); assay: Kinase panel; assay type: biochemical; conditions: MKK6, 1 µM; read-out: residual enzyme activity
Method: as §4

MUSK = MUSK (Homo sapiens, UniProt O15146); assay: Kinase panel; assay type: biochemical; conditions: read-out: residual enzyme activity
Method: as §4

LIMK2 = LIMK2 (Homo sapiens, UniProt P53671); assay: Kinase panel; assay type: biochemical; conditions: LIMK2, 1 µM; read-out: residual enzyme activity
Method: as §4

BMX = biological target: T1, BMX (Homo sapiens, UniProt P51813); assay: Enzyme activity inhibition (Reaction Biology); assay type: biochemical
T1 construct: purchased Reaction Biology (RBC)
T1 sequence (P51813 1-675): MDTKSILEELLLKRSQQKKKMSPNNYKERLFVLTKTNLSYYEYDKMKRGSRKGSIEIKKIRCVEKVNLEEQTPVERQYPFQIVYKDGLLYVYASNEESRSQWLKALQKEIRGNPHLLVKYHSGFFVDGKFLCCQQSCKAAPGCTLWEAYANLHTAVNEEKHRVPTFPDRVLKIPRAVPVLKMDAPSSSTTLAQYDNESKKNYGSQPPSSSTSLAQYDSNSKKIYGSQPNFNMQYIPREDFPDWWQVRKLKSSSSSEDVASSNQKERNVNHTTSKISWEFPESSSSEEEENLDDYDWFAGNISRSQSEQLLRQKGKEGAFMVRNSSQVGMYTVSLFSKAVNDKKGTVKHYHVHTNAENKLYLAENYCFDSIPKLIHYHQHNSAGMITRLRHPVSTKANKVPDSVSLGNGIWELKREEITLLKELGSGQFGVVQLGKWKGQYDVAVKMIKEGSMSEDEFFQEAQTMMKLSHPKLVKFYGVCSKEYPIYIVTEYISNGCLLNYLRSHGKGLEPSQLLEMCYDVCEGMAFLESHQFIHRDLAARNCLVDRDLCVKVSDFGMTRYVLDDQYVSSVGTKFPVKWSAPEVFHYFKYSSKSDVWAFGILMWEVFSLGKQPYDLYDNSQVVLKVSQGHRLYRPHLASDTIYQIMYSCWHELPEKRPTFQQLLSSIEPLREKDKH
Method: (§5) [* <10 nM: A, <100 nM: B, >100 nM: C]. [Table 7]

Src = biological target: T2, Src (Homo sapiens, UniProt P12931); assay: Enzyme activity inhibition (Reaction Biology); assay type: biochemical
T2 construct: purchased Reaction Biology (RBC)
Method: as §5

ACK1 = biological target: T3, ACK1 (Homo sapiens, UniProt Q07912); assay: Enzyme activity inhibition (Reaction Biology); assay type: biochemical
T3 construct: purchased Reaction Biology (RBC)
Method: as §5

MKK6, sequence (P52564 whole entry, species assumed): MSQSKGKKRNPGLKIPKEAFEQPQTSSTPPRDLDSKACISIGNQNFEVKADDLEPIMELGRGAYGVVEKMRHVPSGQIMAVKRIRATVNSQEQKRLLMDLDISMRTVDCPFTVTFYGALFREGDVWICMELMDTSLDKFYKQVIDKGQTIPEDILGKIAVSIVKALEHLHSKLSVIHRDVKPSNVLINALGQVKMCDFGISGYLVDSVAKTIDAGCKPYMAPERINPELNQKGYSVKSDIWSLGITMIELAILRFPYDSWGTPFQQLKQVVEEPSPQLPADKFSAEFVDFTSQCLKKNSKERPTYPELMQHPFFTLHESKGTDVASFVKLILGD
T2 sequence (P12931 whole entry): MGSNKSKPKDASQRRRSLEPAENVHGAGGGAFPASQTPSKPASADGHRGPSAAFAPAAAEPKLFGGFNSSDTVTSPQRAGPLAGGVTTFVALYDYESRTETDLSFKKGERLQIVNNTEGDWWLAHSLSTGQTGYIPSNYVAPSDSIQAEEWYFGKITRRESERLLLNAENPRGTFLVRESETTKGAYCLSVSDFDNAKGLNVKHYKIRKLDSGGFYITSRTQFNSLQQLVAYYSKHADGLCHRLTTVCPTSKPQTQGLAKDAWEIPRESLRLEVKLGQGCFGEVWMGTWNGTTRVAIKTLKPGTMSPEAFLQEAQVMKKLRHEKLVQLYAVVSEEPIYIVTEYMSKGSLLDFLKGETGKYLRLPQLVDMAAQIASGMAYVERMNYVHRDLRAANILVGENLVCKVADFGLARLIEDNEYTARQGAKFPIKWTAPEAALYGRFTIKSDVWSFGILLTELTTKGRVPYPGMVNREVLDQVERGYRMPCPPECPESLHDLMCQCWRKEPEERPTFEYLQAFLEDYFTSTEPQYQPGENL
LIMK2, sequence (P53671 whole entry, species assumed): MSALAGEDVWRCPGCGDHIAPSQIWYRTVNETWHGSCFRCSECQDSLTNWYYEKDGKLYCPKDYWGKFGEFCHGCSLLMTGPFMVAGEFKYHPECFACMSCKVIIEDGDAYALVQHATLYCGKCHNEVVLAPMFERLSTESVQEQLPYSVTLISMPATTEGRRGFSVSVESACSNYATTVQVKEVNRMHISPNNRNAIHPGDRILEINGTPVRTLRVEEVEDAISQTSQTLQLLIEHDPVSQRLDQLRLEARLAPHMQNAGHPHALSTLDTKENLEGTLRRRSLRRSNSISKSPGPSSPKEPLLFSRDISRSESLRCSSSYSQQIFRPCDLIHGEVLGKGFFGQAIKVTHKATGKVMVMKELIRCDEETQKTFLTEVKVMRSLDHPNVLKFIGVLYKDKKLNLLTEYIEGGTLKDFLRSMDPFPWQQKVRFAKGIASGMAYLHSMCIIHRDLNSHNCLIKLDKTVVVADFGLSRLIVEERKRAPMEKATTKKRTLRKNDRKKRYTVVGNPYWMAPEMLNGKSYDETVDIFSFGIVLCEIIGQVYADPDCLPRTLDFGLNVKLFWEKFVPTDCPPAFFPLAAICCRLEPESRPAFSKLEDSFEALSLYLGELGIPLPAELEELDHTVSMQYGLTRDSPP
MUSK, sequence (O15146 24-869, species assumed): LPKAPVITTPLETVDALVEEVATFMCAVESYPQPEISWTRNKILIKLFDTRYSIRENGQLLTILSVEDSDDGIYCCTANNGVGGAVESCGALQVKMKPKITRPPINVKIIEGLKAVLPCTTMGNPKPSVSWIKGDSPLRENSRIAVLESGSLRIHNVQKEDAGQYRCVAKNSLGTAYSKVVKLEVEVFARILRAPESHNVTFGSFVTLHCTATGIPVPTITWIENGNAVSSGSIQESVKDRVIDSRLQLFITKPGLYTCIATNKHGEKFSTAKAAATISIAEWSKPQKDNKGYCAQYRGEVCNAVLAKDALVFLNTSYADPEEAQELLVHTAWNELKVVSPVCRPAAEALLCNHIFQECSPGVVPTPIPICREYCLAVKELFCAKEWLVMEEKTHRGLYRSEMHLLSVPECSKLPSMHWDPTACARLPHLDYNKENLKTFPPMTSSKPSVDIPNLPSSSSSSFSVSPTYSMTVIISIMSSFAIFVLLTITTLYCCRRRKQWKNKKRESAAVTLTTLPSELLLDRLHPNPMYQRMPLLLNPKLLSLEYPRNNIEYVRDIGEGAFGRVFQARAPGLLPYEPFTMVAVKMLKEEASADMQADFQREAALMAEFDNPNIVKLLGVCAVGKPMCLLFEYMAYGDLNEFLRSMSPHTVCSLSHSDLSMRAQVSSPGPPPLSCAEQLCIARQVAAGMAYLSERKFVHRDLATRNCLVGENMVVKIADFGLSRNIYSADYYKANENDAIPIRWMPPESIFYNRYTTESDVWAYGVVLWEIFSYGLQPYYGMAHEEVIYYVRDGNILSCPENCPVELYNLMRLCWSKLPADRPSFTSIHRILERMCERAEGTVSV
LYN B, sequence (P07948 1-491 isoform P07948-2, species assumed): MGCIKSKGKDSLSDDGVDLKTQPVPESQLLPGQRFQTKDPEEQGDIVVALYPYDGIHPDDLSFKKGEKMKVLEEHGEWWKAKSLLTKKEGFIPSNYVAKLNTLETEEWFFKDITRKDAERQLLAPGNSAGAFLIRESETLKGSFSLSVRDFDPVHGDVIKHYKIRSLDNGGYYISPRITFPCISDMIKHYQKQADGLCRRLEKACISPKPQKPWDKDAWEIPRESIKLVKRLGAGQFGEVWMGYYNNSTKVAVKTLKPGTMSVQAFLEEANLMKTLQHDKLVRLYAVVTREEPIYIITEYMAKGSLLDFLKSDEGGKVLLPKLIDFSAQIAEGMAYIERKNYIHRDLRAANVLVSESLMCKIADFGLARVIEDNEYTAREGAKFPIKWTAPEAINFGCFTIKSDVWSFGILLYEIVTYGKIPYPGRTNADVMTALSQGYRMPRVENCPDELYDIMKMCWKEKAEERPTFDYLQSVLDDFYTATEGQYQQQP
MINK/MINK1, sequence (Q8N4C8 whole entry): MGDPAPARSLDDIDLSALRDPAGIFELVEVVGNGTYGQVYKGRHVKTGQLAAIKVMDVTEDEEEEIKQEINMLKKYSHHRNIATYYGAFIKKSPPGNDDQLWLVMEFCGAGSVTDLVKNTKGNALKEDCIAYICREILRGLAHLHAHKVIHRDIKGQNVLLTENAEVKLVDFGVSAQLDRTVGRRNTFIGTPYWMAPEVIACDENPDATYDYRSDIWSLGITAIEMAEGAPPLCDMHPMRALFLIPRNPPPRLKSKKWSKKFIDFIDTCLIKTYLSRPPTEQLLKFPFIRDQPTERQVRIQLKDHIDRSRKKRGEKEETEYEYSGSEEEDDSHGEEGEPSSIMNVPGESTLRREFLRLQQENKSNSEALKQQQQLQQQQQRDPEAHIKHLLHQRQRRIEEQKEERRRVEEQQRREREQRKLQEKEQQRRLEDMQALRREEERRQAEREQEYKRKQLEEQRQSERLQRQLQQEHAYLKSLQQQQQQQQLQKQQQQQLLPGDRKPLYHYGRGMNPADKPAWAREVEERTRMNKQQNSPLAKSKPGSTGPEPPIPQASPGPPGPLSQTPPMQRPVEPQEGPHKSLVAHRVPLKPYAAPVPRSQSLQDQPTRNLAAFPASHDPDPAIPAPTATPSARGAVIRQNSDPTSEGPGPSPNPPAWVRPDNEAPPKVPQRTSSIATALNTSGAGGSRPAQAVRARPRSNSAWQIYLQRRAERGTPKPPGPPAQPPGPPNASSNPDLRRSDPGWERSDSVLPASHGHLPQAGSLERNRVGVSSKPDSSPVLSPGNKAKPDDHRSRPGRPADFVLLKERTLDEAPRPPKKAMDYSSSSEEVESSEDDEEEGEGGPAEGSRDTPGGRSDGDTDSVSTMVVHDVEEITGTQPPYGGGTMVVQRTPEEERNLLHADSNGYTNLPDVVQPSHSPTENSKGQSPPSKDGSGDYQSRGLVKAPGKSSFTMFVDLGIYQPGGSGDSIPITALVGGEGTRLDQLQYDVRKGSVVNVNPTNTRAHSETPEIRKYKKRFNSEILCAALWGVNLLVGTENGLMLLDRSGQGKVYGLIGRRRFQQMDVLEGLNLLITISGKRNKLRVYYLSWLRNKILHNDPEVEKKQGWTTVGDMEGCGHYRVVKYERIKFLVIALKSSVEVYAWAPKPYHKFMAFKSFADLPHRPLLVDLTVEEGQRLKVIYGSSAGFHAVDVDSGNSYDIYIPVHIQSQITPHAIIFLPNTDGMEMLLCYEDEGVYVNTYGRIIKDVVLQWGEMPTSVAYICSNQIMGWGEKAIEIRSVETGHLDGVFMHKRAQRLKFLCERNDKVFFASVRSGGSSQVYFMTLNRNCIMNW

| Compound | GI50 (HT-29) [nM] | GI50 (MDA-MB-231) [nM] | GI50 (MIA-Paca-2) [nM] | GI50 (SKOV3) [nM] | GI50 (A549) [nM] | GI50 (A172) [nM] | GI50 (SW480) [nM] | GI50 (HCI-H460) [nM] | GI50 (HCT-116) [nM] | GI50 (DLD-1) [nM] | GI50 (AsPC-1) [nM] | GI50 (SW620) [nM] | remaining activity at 1 µM (MINK/MINK1) [%] | remaining activity at 1 µM (LYN B) [%] | remaining activity at 1 µM (MKK6) [%] | remaining activity at 1 µM (MUSK) [%] | remaining activity at 1 µM (LIMK2) [%] | IC50 (BMX) [nM] | IC50 (Src) [nM] | IC50 (ACK1) [nM] |
| --- | --- | --- | --- | --- | --- | --- | --- | --- | --- | --- | --- | --- | --- | --- | --- | --- | --- | --- | --- | --- |
| Cc1cn(-c2cc(C(=O)Nc3ccc(C)c(N4Cc5cnc(NC6CC6)nc5C5(CC5)C4=O)c3)cc(C(F)(F)F)c2)cn1 [Compound 8, N-(3-(2'-(cyclopropylamino)-7'-oxo-5'H-spiro[cyclopropane-1,8'-pyrido[4,3-d]pyrimidine]-6'(7'H)-yl)-4-methylphenyl)-3-(4-methyl-1H-imidazol-1-yl)-5-(trifluoromethyl)benzamide] | > 10000 | 1000 to 5000 | < 1000 | 1000 to 5000 | > 10000 | < 1000 | 1000 to 5000 | 1000 to 5000 | < 1000 | 1000 to 5000 | 1000 to 5000 | 1000 to 5000 | ≤ 40 | ≤ 40 | > 40 | ≤ 40 | ≤ 40 | < 10 | 10 to 100 | < 10 |
| Cc1ccc(Nc2ncc3c(n2)C2(CC2)C(=O)N(c2cc(NC(=O)c4cccc(C(F)(F)F)c4)ccc2C)C3)cn1 [Compound 51, N-(4-methyl-3-(2'-((6-methylpyridin-3-yl)amino)-7'-oxo-5'H-spiro[cyclopropane-1,8'-pyrido[4,3-d]pyrimidine]-6'(7'H)-yl)phenyl)-3-(trifluoromethyl)benzamide] | 1000 to 5000 | < 1000 | < 1000 | < 1000 | 1000 to 5000 | < 1000 | < 1000 | < 1000 | < 1000 | 1000 to 5000 | < 1000 | 1000 to 5000 | ≤ 40 | ≤ 40 | > 40 | ≤ 40 | ≤ 40 | < 10 | < 10 | 10 to 100 |
